Experimental data: US7947684B2, “1-aroyl-piperidinyl benzamidines” (Aventis Pharmaceuticals Inc., priority 2000, dated 2011)
Where a name gives a salt, the structure may show the parent alone.

biological target: human lung tryptase or recombinant human β tryptase; test: Tryptase inhibition activity, S2366 substrate; format: biochemical; conditions: room temperature, 0.5 mM substrate
Experimental: (§1) All enzyme assays are carried out at room temperature in 96-well microtiter plates using a final enzyme concentration of 1 nM. The concentrations of factor Xa and thrombin are determined by active site titration and the concentrations of all other enzymes are based on the protein concentration supplied by the manufacturer. Compounds according to the invention are dissolved in DMSO, diluted with their respective buffers and assayed at a maximal final DMSO concentration of 1.25%. Compound dilutions are added to wells containing buffer and enzyme and pre-equilibrated for between 5 and 30 minutes. The enzyme reactions are initiated by the addition of substrate and the color developed from the hydrolysis of the peptide-p-nitroanilide substrates is monitored continuously for 5 minutes at 405 nm on a Vmax microplate reader (Molecular Devices). Under these conditions, less than 10% of the substrate is utilized in all assays. […] The apparent Ki values are then determined according to the Cheng-Prusoff equation (IC50=Ki[1+[S]/Km]) assuming competitive inhibition kinetics.
Tryptase inhibition activity is confirmed using either isolated human lung tryptase or recombinant human β tryptase expressed in yeast cells. Essentially equivalent results are obtained using isolated native enzyme or the expressed enzyme. […]

Row | Structure (SMILES) | Ki
1 | N=C(N)c1cccc(N2CCN(C(=O)c3cncc(CCc4ccccc4)c3)CC2)c1 [Example 49, 3-[4-(5-Phenylethyl-pyridine-3-carbonyl)-piperazin-1-yl]-benzamidine di-hydrochloride] | 1070 nM
2 | N=C(N)c1cccc(C2=CCN(C(=O)c3cncc(C#Cc4ccccc4)c3)CC2)c1 [Example 47, 3-[1-(5-Phenylethynyl-pyridine-3-carbonyl)-1,2,3,6-tetrahydropyridin-4-yl]-benzamidine hydrochloride] | 183 nM

biological target: Factor Xa (Homo sapiens, UniProt P00742); test: Enzyme assay, purified factor Xa, peptide-p-nitroanilide substrate; format: biochemical; conditions: apparent Ki from IC50 by Cheng-Prusoff, room temperature, 1 nM enzyme
Experimental: as §1

Chain of Factor Xa (P00742 235-488 limits assumed): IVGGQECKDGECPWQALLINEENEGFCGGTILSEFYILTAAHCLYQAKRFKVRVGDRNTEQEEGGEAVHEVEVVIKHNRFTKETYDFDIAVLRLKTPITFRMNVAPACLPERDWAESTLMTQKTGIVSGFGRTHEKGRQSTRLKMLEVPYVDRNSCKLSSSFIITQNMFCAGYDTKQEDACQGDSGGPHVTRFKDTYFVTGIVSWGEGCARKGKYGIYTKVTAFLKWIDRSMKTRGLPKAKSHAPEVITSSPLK
Chain of Factor Xa (P00742 41-179 partner limits assumed): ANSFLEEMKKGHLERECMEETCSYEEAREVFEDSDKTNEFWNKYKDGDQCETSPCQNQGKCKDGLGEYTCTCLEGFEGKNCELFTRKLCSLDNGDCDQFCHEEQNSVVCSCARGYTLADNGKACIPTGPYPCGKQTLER

Row | Structure (SMILES) | Ki
3 | N=C(N)c1cccc(C2=CCN(C(=O)c3ccc(-c4cccnc4)cc3)CC2)c1 [Example 8, 3-[1-(4-Pyridin-3-yl-benzoyl)-1,2,3,6-tetrahydropyridin-4-yl]benzamidine ditrifluoroacetate] | 5 nM
4 | N=C(N)c1cccc(C2=CCN(C(=O)c3ccc(-c4ncccn4)cc3)CC2)c1 [Example 16, 3-[1-(4-Pyrimidin-2-ylbenzoyl)-1,2,3,6-tetrahydropyridin-4-yl]-benzamidine ditrifluoroacetate] | 63 nM
5 | N=C(N)c1cccc(C2=CCN(C(=O)c3ccc(-c4ccc(Cl)s4)cc3)CC2)c1 [Example 11, 3-{1-[4-(5-Chlorothiophen-2-yl)-benzoyl]-1,2,3,6-tetrahydropyridin-4-yl}benzamidine trifluoroacetate] | 688 nM
6 | Nc1nccc2ccc(C3=CCN(C(=O)c4ccc(-c5ccc(=O)[nH]c5)cc4)CC3)cc12 [Example 39, 5-{4-[4-(1-Aminoisoquinolin-7-yl)-3,6-dihydro-2H-pyridine-1-carbonyl]phenyl}-1H-pyridin-2-one trifluoroacetate] | 140 nM
7 | N=C(N)c1cccc(C2CCN(C(=O)c3ccc(-c4ccccn4)cc3)CC2)c1 [Example 25, 3-[1-(4-Pyridin-2-ylbenzoyl)-piperidin-4-yl]benzamidine ditrifluoroacetate] | 9 nM
8 | N=C(N)c1cccc(C2=CCN(C(=O)c3ccc(-c4ccc(Br)o4)cc3)CC2)c1 [Example 10, 3-{1-[4-(5-Bromofuran-2-yl)-benzoyl]-1,2,3,6-tetrahydropyridin-4-yl}benzamidine trifluoroacetate] | 34 nM
9 | NC(=O)c1cccc(-c2ccc(C(=O)N3CCC(c4ccc5ccnc(N)c5c4)CC3)cc2)c1 [Example 35, 4′-[4-(1-Aminoisoquinolin-7-yl)piperidine-1-carbonyl]biphenyl-3-carboxylic acid amide trifluoroacetate] | 570 nM
10 | Nc1nccc2[nH]c(C3CCN(C(=O)c4ccc(-c5ccc(=O)[nH]c5)cc4)CC3)cc12 [Example 44, 5-{4-[4-(4-Amino-1H-pyrrolo[3,2-c]pyridin-2-yl)piperidine-1-carbonyl]phenyl}-1H-pyridin-2-one trifluoroacetate] | 990 nM
